Consider 18 compounds from ChEMBL document CHEMBL5143622, “Synthesis and biological evaluation of 7H-pyrrolo [2,3-d] pyrimidine derivatives as potential p21-activated kinase 4 (PAK4) inhibitors” (Bioorg Med Chem, 2022).

Data set [1] concerns the target T1, Serine/threonine-protein kinase PAK 4 (Homo sapiens, UniProt O96013). Description: Inhibition of human PAK4 assessed as enzymatic activity at 2 uM incubated for 20 mins by filter binding method relative to control.
Target sequence in this assay (O96013 whole entry, looked up): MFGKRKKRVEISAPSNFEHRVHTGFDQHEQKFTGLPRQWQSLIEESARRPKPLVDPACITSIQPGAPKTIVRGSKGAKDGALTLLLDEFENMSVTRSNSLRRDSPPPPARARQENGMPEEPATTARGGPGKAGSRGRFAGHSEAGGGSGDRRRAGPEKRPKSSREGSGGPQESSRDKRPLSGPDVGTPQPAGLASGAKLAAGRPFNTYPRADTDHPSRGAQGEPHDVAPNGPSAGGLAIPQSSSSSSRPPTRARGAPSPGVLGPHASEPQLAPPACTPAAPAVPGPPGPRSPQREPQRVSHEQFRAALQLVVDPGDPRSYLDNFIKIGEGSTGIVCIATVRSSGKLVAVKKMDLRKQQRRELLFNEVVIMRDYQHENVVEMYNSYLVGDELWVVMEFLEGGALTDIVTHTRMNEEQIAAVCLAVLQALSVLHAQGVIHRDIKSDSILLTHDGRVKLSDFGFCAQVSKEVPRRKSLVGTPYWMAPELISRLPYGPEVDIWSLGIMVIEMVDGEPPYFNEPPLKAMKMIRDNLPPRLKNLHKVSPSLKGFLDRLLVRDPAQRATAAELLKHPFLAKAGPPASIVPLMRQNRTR
In data set [2] the target is T1, Serine/threonine-protein kinase PAK 4. Description: Inhibition of human PAK4 assessed as enzymatic activity incubated for 20 mins by filter binding method.
Target sequence in this assay (O96013 whole entry): as the sequence (O96013 whole entry, looked up) above
The target is the same in data set [3]. Description: Inhibition of human PAK4 assessed as inhibition constant.
Target sequence in this assay (O96013 whole entry): as the sequence (O96013 whole entry, looked up) above
Data set [4] has as its system MV4-11. Description: Induction of apoptosis in human MV4-11 cells assessed as early apoptotic cells at 250 nM incubated for 48 hrs by annexin V-FITC and propidium iodide staining based flow cytometry analysis (reference value: 3.71 %). It is filed as functional. Background: A flow cytometer gives signals particle by particle.
Data set [5] deals with MV4-11. Description: Induction of apoptosis in human MV4-11 cells assessed as viable cells at 250 nM incubated for 48 hrs by annexin V-FITC and propidium iodide staining based flow cytometry analysis (reference value: 95.6 %). It is filed as functional. The settings on record: read-out: Activity.
In data set [6] the test system is MV4-11. Description: Induction of apoptosis in human MV4-11 cells assessed as early apoptotic cells at 10 nM incubated for 48 hrs by annexin V-FITC and propidium iodide staining based flow cytometry analysis (reference value: 3.71 %). It is filed as functional.
The subject of data set [7] is MV4-11. Description: Induction of cell cycle arrest in human MV4-11 cells assessed as accumulation at G2/M phase at 50 nM incubated for 24 hrs by propidium iodide staining based flow cytometry analysis (reference value: 7.46 %). The data set is classed as functional.
The test system of data set [8] is MV4-11. Description: Antiproliferative activity against human MV4-11 cells assessed as cell growth inhibition incubated for 72 hrs by cell titre glo luminescence assay. The data set is classed as functional, cell-based. As to conditions: MV4-11, 72 h.
Another data set relates to MDA-MB-231. Description: Antiproliferative activity against human MDA-MB-231 cells assessed as cell growth inhibition incubated for 72 hrs by cell titre glo luminescence assay. The settings on record: MDA-MB-231, 72 h. The data set is classed as functional, cell-based.
In data set [9] the test system is MV4-11. Description: Induction of cell cycle arrest in human MV4-11 cells assessed as accumulation at G0/G1 phase at 5 nM incubated for 24 hrs by propidium iodide staining based flow cytometry analysis (reference value: 66.79 %). The data set is classed as functional.
Data set [10] relates to MV4-11. Description: Induction of apoptosis in human MV4-11 cells assessed as necrotic cells at 250 nM incubated for 48 hrs by annexin V-FITC and propidium iodide staining based flow cytometry analysis (reference value: 0.013 %). It is filed as functional.
The test system of data set [11] is MV4-11. Description: Induction of apoptosis in human MV4-11 cells assessed as necrotic cells at 10 nM incubated for 48 hrs by annexin V-FITC and propidium iodide staining based flow cytometry analysis (reference value: 0.013 %). The data set is classed as functional.
Data set [12] relates to MV4-11. Description: Induction of cell cycle arrest in human MV4-11 cells assessed as accumulation at S phase at 10 nM incubated for 24 hrs by propidium iodide staining based flow cytometry analysis (reference value: 25.75 %). The data set is classed as functional.
Data set [13] relates to MV4-11. Description: Induction of cell cycle arrest in human MV4-11 cells assessed as accumulation at S phase at 50 nM incubated for 24 hrs by propidium iodide staining based flow cytometry analysis (reference value: 25.75 %). The data set is classed as functional.
Data set [14] has as its system MV4-11. Description: Induction of cell cycle arrest in human MV4-11 cells assessed as accumulation at G2/M phase at 5 nM incubated for 24 hrs by propidium iodide staining based flow cytometry analysis (reference value: 7.46 %). The data set is classed as functional.
Data set [15] relates to MV4-11. Description: Induction of cell cycle arrest in human MV4-11 cells assessed as accumulation at S phase at 5 nM incubated for 24 hrs by propidium iodide staining based flow cytometry analysis (reference value: 25.75 %). It is filed as functional.
Data set [16] has as its system MV4-11. Description: Induction of apoptosis in human MV4-11 cells assessed as necrotic cells at 50 nM incubated for 48 hrs by annexin V-FITC and propidium iodide staining based flow cytometry analysis (reference value: 0.013 %). It is filed as functional.
For data set [17], the system named is MV4-11. Description: Induction of cell cycle arrest in human MV4-11 cells assessed as accumulation at G2/M phase at 10 nM incubated for 24 hrs by propidium iodide staining based flow cytometry analysis (reference value: 7.46 %). The data set is classed as functional.
The target of data set [18] is T1, Serine/threonine-protein kinase PAK 4. Description: Inhibition of PAK4 phosphorylation at Ser474 residue in human MV4-11 cells at 50 to 800 nM incubated for 24 hrs by Western blot analysis. The settings on record: dose 50-800 nM, DDE = dose-dependent effect. It is filed as cell-based. On the technique in general: A western blot detects proteins with antibodies after separation by electrophoresis.
Target sequence in this assay (O96013 whole entry, looked up): as above

The test system of data set [19] is MV4-11. Description: Induction of apoptosis in human MV4-11 cells assessed as late apoptotic cells at 10 nM incubated for 48 hrs by annexin V-FITC and propidium iodide staining based flow cytometry analysis (reference value: 1.67 %). The data set is classed as functional.
Data set [20] has as its system MV4-11. Description: Induction of apoptosis in human MV4-11 cells assessed as late apoptotic cells at 250 nM incubated for 48 hrs by annexin V-FITC and propidium iodide staining based flow cytometry analysis (reference value: 1.67 %). The data set is classed as functional.
For data set [21], the system named is MV4-11. Description: Induction of cell cycle arrest in human MV4-11 cells assessed as accumulation at G0/G1 phase at 10 nM incubated for 24 hrs by propidium iodide staining based flow cytometry analysis (reference value: 66.79 %). It is filed as functional.
Data set [22] has as its system MV4-11. Description: Induction of apoptosis in human MV4-11 cells assessed as viable cells at 10 nM incubated for 48 hrs by annexin V-FITC and propidium iodide staining based flow cytometry analysis (reference value: 95.6 %). It is filed as functional. As to conditions: read-out: Activity.
In data set [23] the test system is MV4-11. Description: Induction of cell cycle arrest in human MV4-11 cells assessed as accumulation at G0/G1 phase at 50 nM incubated for 24 hrs by propidium iodide staining based flow cytometry analysis (reference value: 66.79 %). The data set is classed as functional.
For data set [24], the system named is MV4-11. Description: Induction of apoptosis in human MV4-11 cells assessed as viable cells at 50 nM incubated for 48 hrs by annexin V-FITC and propidium iodide staining based flow cytometry analysis (reference value: 95.6 %). It is filed as functional. As to conditions: read-out: Activity.
The test system of data set [25] is MV4-11. Description: Induction of apoptosis in human MV4-11 cells assessed as early apoptotic cells at 50 nM incubated for 48 hrs by annexin V-FITC and propidium iodide staining based flow cytometry analysis (reference value: 3.71 %). It is filed as functional.
In data set [26] the test system is MV4-11. Description: Induction of apoptosis in human MV4-11 cells assessed as late apoptotic cells at 50 nM incubated for 48 hrs by annexin V-FITC and propidium iodide staining based flow cytometry analysis (reference value: 1.67 %). It is filed as functional.
The nature of data set [27]: Cytotoxicity against HEK293T cells assessed as cell growth inhibition incubated for 72 hrs by cell titre glo luminescence assay. It is filed as toxicity, cell-based, HEK-293T. As to conditions: human.

In the case of `N[C@H]1CCCN(c2nc(Nc3cccc(Cl)c3)nc3[nH]ccc23)C1`, the inhibition (in general, the drop in the measured response relative to a control, in per cent) in data set [1] stood at 38.3%. The IC50 (commonly the point on the concentration scale where inhibition reaches its midpoint) in data set [2] was found to be 0.229 µM.
As for `c1ccc(Nc2nc(N3CCNCC3)c3cc[nH]c3n2)cc1`, in data set [1], the inhibition was found to be 89.6%.
With `COCCNc1nc2ccc(C#CC3(O)CCCCC3)cc2n1-c1ncnc(N)n1`, in data set [3], the inhibition constant (Ki) (usually the equilibrium dissociation constant of an inhibitor or competing ligand from its target) is 0.0033 µM.
Consider `OCC(O)CNc1nc(Nc2ccccc2)nc2[nH]ccc12` (stereo not given), for which the inhibition in [1] was found to be 82.4%.
Regarding `COc1cccc(Nc2nc(NC3CCNCC3)c3cc[nH]c3n2)c1`, in data set [1], the inhibition was found to be 46.2%.
`c1ccc(Nc2nc(N3CCOCC3)c3cc[nH]c3n2)cc1`: the inhibition in [1] is 91.6%.
As to `N[C@H]1CC[C@@H](Nc2nc(Nc3cccc(Cl)c3)nc3[nH]ccc23)CC1`, the Activity with MV4-11 [4] turned out to be 14.5%; in the data set with MV4-11 [6], 4.28%; in the data set with MV4-11 [7], 1.27%; in the data set with MV4-11 [9], 78.7%; with MV4-11 [10], 0.087%; with MV4-11 [11], 0.032%. In addition, the Activity in the data set with MV4-11 [12] worked out at 8.71%; in the data set on MV4-11 [13], 7.75%; with MV4-11 [14], 3.97%; in the data set with MV4-11 [15] it was 17.34%; in the data set on MV4-11 [16] it was 0.043%; with MV4-11 [17], 2.48%. In addition, the Activity in the data set with MV4-11 [19] was 2.99%; with MV4-11 [20], 12.5%; with MV4-11 [21] it was 88.81%; with MV4-11 [23] it was 90.98%; with MV4-11 [25], 11.9%; with MV4-11 [26] it was 9.71%. Besides, in the data set with MV4-11 [5], the viability at 0.25 µM turned out to be 72.8%. The IC50 in the data set on MV4-11 [8] was 0.0078 µM; in the data set with MDA-MB-231 it was 0.825 µM; in [2] it was 0.0027 µM. Further, the inhibition entry in data set [18] is “Dde”. Further, the viability at 0.01 µM in the data set with MV4-11 [22] was 92.7%. Moreover, the viability at 0.05 µM with MV4-11 [24] came out at 78.4%. For the same compound, the half-maximal inhibitory concentration (IC50) at 72 h in data set [27] was above 10 µM.
As for `C[C@@H]1CN(C(=O)c2nc(Nc3cc(C4CC4)[nH]n3)c3cc(Cl)ccc3n2)CCN1`, in [2], the IC50 came out at 0.009 µM.
Regarding `c1ccc(Nc2nc(NC3CCNCC3)c3cc[nH]c3n2)cc1`, the inhibition in [1] is 64.2%. Further, the IC50 in data set [2] was found to be 2.94 µM.
With `NCC1CCCN(c2nc(Nc3cccc(Cl)c3)nc3[nH]ccc23)C1` (stereo not given), in data set [1], the inhibition was 61%.
For `CC1(N)CCN(c2nc(Nc3cccc(Cl)c3)nc3[nH]ccc23)CC1`, the inhibition in [1] came to 35.5%.
With `N[C@@H]1CCCN(c2nc(Nc3cccc(Cl)c3)nc3[nH]ccc23)C1`, the inhibition in data set [1] was 72.5%. For the same compound, the IC50 in [2] was determined as 0.229 µM.
The corresponding values for `Fc1cccc(Nc2nc(NC3CCNCC3)c3cc[nH]c3n2)c1` are 38.3% and 0.165 µM.
Regarding `OCCNc1nc(Nc2ccccc2)nc2[nH]ccc12`, the inhibition in data set [1] turned out to be 86.9%.
For the compound `Nc1ccc(/C=C/C(=O)NCc2cc3cc(-c4ccc(C(=O)N5CCC(F)(F)CC5)cc4)cc(-c4ccc(F)cc4)c3o2)cn1` [PADNARSERTIB], the IC50 in data set [2] came out at 0.1 µM.
Turning to `Clc1cccc(Nc2nc(NCC3CCNCC3)c3cc[nH]c3n2)c1`, the inhibition in data set [1] came to 25.9%.
Consider `N[C@H]1CC[C@H](Nc2nc(Nc3cccc(Cl)c3)nc3[nH]ccc23)CC1`, for which the IC50 was found to be 0.0383 µM in the data set on MV4-11 [8], 2.48 µM with MDA-MB-231 and 0.0202 µM in [2]. For the same compound, the 50% inhibitory concentration (IC50) at 72 h in data set [27] was 7.39 µM.
As to `Clc1cccc(Nc2nc(NC3CCNCC3)c3cc[nH]c3n2)c1`, the IC50 in data set [2] was determined as 0.0503 µM.
